EC50 data for one compound are collected here from BindingDB's records for patent US20240246937 (Merck Sharp & Dohme, 2024).

In general, EC50 refers to the concentration that produces a half-maximal response. Read a low EC50 as higher potency in that assay.

This experiment addresses T1, L-amino-acid oxidase (Homo sapiens, UniProt Q96RQ9).
T1 sequence (Q96RQ9 whole entry): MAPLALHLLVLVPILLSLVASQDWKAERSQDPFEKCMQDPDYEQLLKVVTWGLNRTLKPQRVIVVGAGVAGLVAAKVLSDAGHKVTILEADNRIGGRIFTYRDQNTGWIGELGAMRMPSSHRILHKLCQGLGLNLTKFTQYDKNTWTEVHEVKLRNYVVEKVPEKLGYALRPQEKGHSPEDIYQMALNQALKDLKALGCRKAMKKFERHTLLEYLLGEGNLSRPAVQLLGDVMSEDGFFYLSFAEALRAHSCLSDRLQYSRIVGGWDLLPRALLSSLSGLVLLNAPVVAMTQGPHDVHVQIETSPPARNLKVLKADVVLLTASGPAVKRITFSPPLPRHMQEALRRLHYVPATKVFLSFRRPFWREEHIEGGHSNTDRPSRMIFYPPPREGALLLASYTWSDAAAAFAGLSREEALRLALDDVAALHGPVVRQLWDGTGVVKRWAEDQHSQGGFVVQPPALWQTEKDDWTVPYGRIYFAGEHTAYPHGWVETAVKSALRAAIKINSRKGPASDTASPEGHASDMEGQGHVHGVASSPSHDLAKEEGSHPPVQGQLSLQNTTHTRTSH
Put plainly: IL4I1 Enzymatic Assay. As to the method:
Using this assay, the potency (EC50) of each compound was determined from a ten-point (1:3 serial dilution) titration curve using the following outlined procedure. To each well of a black flat-bottom Greiner (Cat #781076) 384 well-plate, 25 nL of compound (0.1% DMSO in final assay volume of 25 μL) was dispensed, followed by the addition of 12.5 μL of 1× assay buffer (50 mM Hepes 7.0 and 0.005% Tween20 (Sigma, Cat #P8341; low peroxide grade)) containing 2 nM of recombinant IL4I1 (R&D Systems, Cat #5684-AO-020). Plates were placed in an ambient temperature humidified chamber for a four-hour pre-incubation with compound. Subsequently, each reaction was initiated by the addition of 12.5 μL 1× assay buffer containing 2 mM of each aromatic amino acids (Phe/Tyr/Trp), 0.1 mM Amplex Red and 2 U/mL of HRP. The final reaction in each well of 25 μL consisted of 1 nM of IL4I1, 1 mM of each residues (Phe, Tyr and Trp), 0.05 mM Amplex Red and 1 U/mL of HRP. It should be noted that the concentrations of Amplex Red and HRP used here were in excess such that the conversion of H2O2 to resorufin product occurred

In turn, `CC1CC(N2CCN(Cc3nnc(-c4ccccc4)s3)C(=O)C2=O)C1` (stereo unspecified) [US20240246937, Example 289] displayed an EC50 of 6 nM.
